Laboratory results published in patent publication US12600926B2, “Treatment compositions with modified amino acid dimers for delivering a benefit agent” (The Procter & Gamble Company, priority 2022, dated 2026).

Experiment: Stability of the independent neat fluid by 1H NMR
Type: physicochemical
Settings: neat premix fluid, storage
Description: Synthetic Example 1′ was prepared as described in General Method A, but using 10 g of L-Cystine, 17.0 g of dodecanol, and 17.4 g PTSA·H2O. The isolated fluid of Synthetic Example 1′ was then mixed with cyclamen aldehyde as described in General Method B yielding Synthetic Example 1.
Synthetic Example 2′ was prepared as described in General Method A, but using 5.0 g of 2,6-Diaminoheptanedioic acid, 10.5 g of dodecanol, and 11 g PTSA·H2O. The isolated fluid of Synthetic Example 2′ was then mixed with 15 wt % ethanol, and cyclamen aldehyde as described in General Method B yielding Synthetic Example 2A.
Synthetic Example 2′ was prepared as described in General Method A, but using 5.0 g of 2,6-Diaminoheptanedioic acid, 10.8 g of dodecanol, and 11.1 g PTSA H2O. The isolated fluid of Synthetic Example 2′ was then mixed with 15 wt % ethanol, and δ-Damascone, as described in General Method B yielding Synthetic Example 2B.

With CCCCCCCCCCCCOC(=O)C(CCCC(NC(C)CC(=O)C1C(C)C=CCC1(C)C)C(=O)OCCCCCCCCCCCC)NC(C)CC(=O)C1C(C)C=CCC1(C)C (centres unmarked) [Synthetic Example 2B] the “Stability of the independent fluid by 1H NMR” value was “stable for several months”.
For CCCCCCCCCCCCOC(=O)C(CCCC(N=CC(C)Cc1ccc(C(C)C)cc1)C(=O)OCCCCCCCCCCCC)N=CC(C)Cc1ccc(C(C)C)cc1 (centres unmarked) [Synthetic Example 2A], the “Stability of the independent fluid by 1H NMR” value was “stable for several months”.
